Counter-ions that a name gives are not always drawn. Like-named read-outs stand apart in the source and are kept apart here.
Legend:
[1] = target: PDE4 (Homo sapiens, UniProt Q08499); assay: In-vitro assay for PDE4 enzymes, real-time enzyme-coupled spectrophotometric assay (Table 9); type: biochemical
[2] = target: PDE4B (Homo sapiens, UniProt Q07343); assay: In-vitro assay for PDE4 enzymes, real-time enzyme-coupled spectrophotometric assay, PDE4B Activity (Table 10); type: biochemical
[3] = human PDE4D, activity class, Table 9, read-out: hPDE4D
[4] = human PDE4B (hPDE4B), enzyme-coupled spectrophotometric assay, read-out: PDE4B Activity, hPDE4B

Chain of PDE4B (Q07343 whole entry): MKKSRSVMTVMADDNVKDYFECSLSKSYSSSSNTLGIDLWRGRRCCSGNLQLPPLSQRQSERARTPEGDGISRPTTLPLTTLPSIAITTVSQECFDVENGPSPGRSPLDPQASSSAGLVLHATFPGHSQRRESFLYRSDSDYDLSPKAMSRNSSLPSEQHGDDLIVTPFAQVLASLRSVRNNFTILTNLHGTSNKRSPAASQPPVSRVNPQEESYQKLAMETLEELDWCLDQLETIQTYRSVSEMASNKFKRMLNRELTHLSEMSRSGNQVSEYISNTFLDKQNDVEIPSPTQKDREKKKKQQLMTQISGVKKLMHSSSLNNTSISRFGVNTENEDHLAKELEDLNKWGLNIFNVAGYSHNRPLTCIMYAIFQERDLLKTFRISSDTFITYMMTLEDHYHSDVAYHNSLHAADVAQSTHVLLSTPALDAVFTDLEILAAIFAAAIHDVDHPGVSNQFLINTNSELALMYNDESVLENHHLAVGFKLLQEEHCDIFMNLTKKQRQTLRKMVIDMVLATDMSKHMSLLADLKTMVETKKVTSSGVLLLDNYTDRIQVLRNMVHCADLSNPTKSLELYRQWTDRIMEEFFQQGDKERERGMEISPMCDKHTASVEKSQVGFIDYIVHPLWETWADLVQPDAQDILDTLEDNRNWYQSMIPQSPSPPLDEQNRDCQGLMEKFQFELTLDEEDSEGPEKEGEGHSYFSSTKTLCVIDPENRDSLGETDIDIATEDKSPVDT
Chain of PDE4 (Q08499 whole entry): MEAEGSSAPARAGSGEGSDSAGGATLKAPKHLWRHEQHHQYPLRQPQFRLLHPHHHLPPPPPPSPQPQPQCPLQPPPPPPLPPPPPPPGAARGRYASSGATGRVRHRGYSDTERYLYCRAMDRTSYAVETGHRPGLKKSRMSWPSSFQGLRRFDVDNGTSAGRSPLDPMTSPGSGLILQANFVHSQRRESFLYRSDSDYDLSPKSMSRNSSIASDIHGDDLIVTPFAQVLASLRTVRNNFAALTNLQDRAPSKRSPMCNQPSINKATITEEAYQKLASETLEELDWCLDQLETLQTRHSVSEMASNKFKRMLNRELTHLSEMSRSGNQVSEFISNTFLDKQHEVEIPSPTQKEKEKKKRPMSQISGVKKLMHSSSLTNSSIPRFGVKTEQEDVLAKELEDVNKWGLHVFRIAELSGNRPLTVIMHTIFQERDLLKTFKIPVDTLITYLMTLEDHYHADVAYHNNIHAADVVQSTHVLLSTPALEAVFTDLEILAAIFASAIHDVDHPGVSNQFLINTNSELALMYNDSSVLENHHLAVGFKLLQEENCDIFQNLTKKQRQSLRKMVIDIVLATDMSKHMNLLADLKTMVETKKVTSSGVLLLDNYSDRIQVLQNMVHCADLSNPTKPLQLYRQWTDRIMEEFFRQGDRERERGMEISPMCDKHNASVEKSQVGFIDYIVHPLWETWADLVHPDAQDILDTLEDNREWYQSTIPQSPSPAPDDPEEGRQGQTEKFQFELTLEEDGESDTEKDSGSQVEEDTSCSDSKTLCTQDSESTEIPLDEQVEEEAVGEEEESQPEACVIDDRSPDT

Row | IC50 [1, 3] [µM] | IC50 [2, 4] [µM] | Compound | IC50 [1] [µM] | IC50 [2] [µM]
1 | < 5 | < 5 | COc1ccc(Cc2ccc(CNC(C)=O)c(F)c2)c(F)c1-c1cccc(C(C)=O)c1 [P-329] |  | 
2 | < 5 | < 5 | COc1ccc(Cc2nnc(N)s2)c(F)c1-c1cccc(Cl)c1 [P-333, 5-(3′-Chloro-2-fluoro-6-methoxy-biphenyl-3-ylmethyl)-[1,3,4]thiadiazol-2-ylamine] |  | 
3 | < 5 | < 5 | CCOc1ccc(Cc2ccc(NC(N)=O)cc2)c(F)c1-c1cccc(C(C)=O)c1 [P-335, [4-(3′-Acetyl-6-ethoxy-2-fluoro-biphenyl-3-ylmethyl)-phenyl]-urea] |  | 
4 | < 5 | < 5 | CNc1ccc(Cc2ccc(OC)c(-c3cccc(C(C)=O)c3)c2F)cn1 [P-336] |  | 
5 | < 5 | < 5 | COc1ccc(Cc2ccc(NC(C)=O)nc2)c(F)c1-c1cccc(C(C)=O)c1 [P-345] |  | 
6 | < 5 | 5 to 20 | CCNC(=O)Nc1nc(Cc2ccc(OC)c(-c3cccc(Cl)c3)c2F)cs1 [P-346, 1-[4-(3′-Chloro-2-fluoro-6-methoxy-biphenyl-3-ylmethyl)-thiazol-2-yl]-3-ethyl-urea] |  | 
7 | < 5 | < 5 | COc1ccc(Cc2ccc(NC(N)=O)cc2)c(F)c1-c1cccc(Br)c1 [P-347] |  | 
8 | < 5 | < 5 | COc1ccc(Cc2ccc(C#N)nc2)c(F)c1-c1cccc(Cl)c1 [P-355] |  | 
9 | < 5 | < 5 | CCNC(=O)Nc1ccc(Cc2ccc(OC)c(-c3cccc(Cl)c3)c2F)cn1 [P-356] |  | 
10 | < 5 | 5 to 20 | CCOC(=O)N(CC)c1ccc(Cc2ccc(OC)c(-c3cccc(Cl)c3)c2F)cn1 [P-359] |  | 
11 | < 5 | < 5 | COc1ccc(Cc2ccc(N3CCNC3=O)nc2)c(F)c1-c1cccc(C(C)=O)c1 [P-361, 1-[5-(3′-Acetyl-2-fluoro-6-methoxy-biphenyl-3-ylmethyl)-pyridin-2-yl]-imidazolidin-2-one] |  | 
12 | < 5 | < 5 | COc1ccc(Cc2cnc(NC(N)=O)nc2)c(F)c1-c1cccc(C(C)=O)c1 [P-362, [5-(3′-Acetyl-2-fluoro-6-methoxy-biphenyl-3-ylmethyl)-pyrimidin-2-yl]-urea] |  | 
13 | < 5 | < 5 | CCOC(=O)NCc1ccc(Cc2ccc(OC)c(-c3cccc(Cl)c3)c2F)cn1 [P-367, [5-(3′-Chloro-2-fluoro-6-methoxy-biphenyl-3-ylmethyl)-pyridin-2-ylmethyl]-carbamic acid ethyl ester] |  | 
14 | < 5 | < 5 | COc1ccc(Cc2ccc(CNC(N)=O)nc2)c(F)c1-c1cccc(Cl)c1 [P-368, [5-(3′-Chloro-2-fluoro-6-methoxy-biphenyl-3-ylmethyl)-pyridin-2-ylmethyl]-urea] |  | 
15 | < 5 | < 5 | COc1ccc(Cc2cnc(N)s2)c(F)c1-c1cccc(Cl)c1 [P-369, 5-(3′-Chloro-2-fluoro-6-methoxy-biphenyl-3-ylmethyl)-thiazol-2-ylamine] |  | 
16 | < 5 | < 5 | CCNC(=O)NCc1ccc(Cc2ccc(OC)c(-c3cccc(Cl)c3)c2F)cn1 [P-372, 1-[5-(3′-Chloro-2-fluoro-6-methoxy-biphenyl-3-ylmethyl)-pyridin-2-ylmethyl]-3-ethyl-urea] |  | 
17 | < 5 | < 5 | COc1ccc(Cc2ccc(CN3CCNC3=O)nc2)c(F)c1-c1cccc(Cl)c1 [P-374, 1-[5-(3′-Chloro-2-fluoro-6-methoxy-biphenyl-3-ylmethyl)-pyridin-2-ylmethyl]-imidazolidin-2-one] |  | 
18 | < 5 | < 5 | COc1ccc(Cc2ccc(CN3CCN(C)C3=O)nc2)c(F)c1-c1cccc(Cl)c1 [P-375, 1-[5-(3′-Chloro-2-fluoro-6-methoxy-biphenyl-3-ylmethyl)-pyridin-2-ylmethyl]-3-methyl-imidazolidin-2-one] |  | 
19 | < 5 | < 5 | COc1ccc(Cc2ccc(NC(N)=O)cc2)nc1-c1cccc(Cl)c1 [P-376, {4-[6-(3-chloro-phenyl)-5-methoxy-pyridin-2-ylmethyl]-phenyl}-urea] |  | 
20 | < 5 | < 5 | COc1ccc(Cc2ccc(NC(N)=O)cc2)cc1-c1cccc(Cl)c1 [P-378, [4-(3′-chloro-6-methoxy-biphenyl-3-ylmethyl)-phenyl]-urea] |  | 
21 | < 5 | < 5 | COc1ccc(Cc2ccc(C(=O)N(C)C)nc2)c(F)c1-c1cccc(Cl)c1 [P-382, 5-(3′-Chloro-2-fluoro-6-methoxy-biphenyl-3-ylmethyl)-pyridine-2-carboxylic acid dimethylamide] |  | 
22 | < 5 | < 5 | COc1ccc(Cc2ccc(NC(C)=O)nc2)c(F)c1-c1cccc(Cl)c1 [P-387] |  | 
23 | < 5 | < 5 | COc1ccc(Cc2cnc(Cl)nc2)c(F)c1-c1cccc(Cl)c1 [P-392] |  | 

More lines, now with the values behind:

Row | Compound | IC50 [1, 3] [µM] | IC50 [2, 4] [µM] | IC50 [1] [µM] | IC50 [2] [µM]
24 | COc1ccc(Cc2ccc(C(N)=O)nc2)c(F)c1-c1cccc(C(C)=O)c1 [P-328, 5-(3′-Acetyl-2-fluoro-6-methoxy-biphenyl-3-ylmethyl)-pyridine-2-carboxylic acid amide] | < 5 | < 5 |  | 
25 | COc1ccc(Cc2ccc(CNC(N)=O)c(F)c2)c(F)c1-c1cccc(C(C)=O)c1 [P-330] | < 5 | < 5 |  | 
26 | CNc1ccc(Cc2ccc(OC)c(-c3cccc(C(C)=O)c3)c2F)cc1 [P-331, [4-(3′-Acetyl-2-fluoro-6-methoxy-biphenyl-3-ylmethyl)-phenyl]-methyl-amine hydrochloride] | < 5 | < 5 |  | 
27 | COc1ccc(Cc2ccc(N(C)C)nc2)c(F)c1-c1cccc(C(C)=O)c1 [P-332, 1-[3′-(6-Dimethylamino-pyridin-3-ylmethyl)-2′-fluoro-6′-methoxy-biphenyl-3-yl]-ethanone] | < 5 | < 5 |  | 
28 | CCOc1ccc(Cc2ccc(N)cc2)c(F)c1-c1cccc(C(C)=O)c1 [P-334, 1-[3′-(4-Amino-benzyl)-6′-ethoxy-2′-fluoro-biphenyl-3-yl]-ethanone; hydrochloride] | < 5 | < 5 |  | 
29 | COc1ccc(Cc2ccc(N(C)C(N)=O)cc2)c(F)c1-c1cccc(C(C)=O)c1 [P-338, 1-[4-(3′-Acetyl-2-fluoro-6-methoxy-biphenyl-3-ylmethyl)-phenyl]-1-methyl-urea] | < 5 | < 5 |  | 
30 | CCNc1ccc(Cc2ccc(OC)c(-c3cccc(C(C)=O)c3)c2F)cn1 [P-339] | < 5 | < 5 |  | 
31 | COc1ccc(Cc2csc(N)n2)c(F)c1-c1cccc(Cl)c1 [P-341, 4-(3′-Chloro-2-fluoro-6-methoxy-biphenyl-3-ylmethyl)-thiazol-2-ylamine] | < 5 | < 5 |  | 
32 | COC(=O)Nc1nnc(Cc2ccc(OC)c(-c3cccc(Cl)c3)c2F)s1 [P-342, Methyl[5-(3′-Chloro-2-fluoro-6-methoxy-biphenyl-3-ylmethyl)-[1,3,4]thiadiazol-2-yl]-carbamate] | < 5 | < 5 |  | 
33 | CCNC(=O)Nc1nnc(Cc2ccc(OC)c(-c3cccc(Cl)c3)c2F)s1 [P-343, 1-[5-(3′-Chloro-2-fluoro-6-methoxy-biphenyl-3-ylmethyl)-[1,3,4]thiadiazol-2-yl]-3-ethyl-urea] | < 5 | < 5 |  | 
34 | COc1ccc(Cc2ccc(CN)nc2)c(F)c1-c1cccc(Cl)c1 [P-344, C-[5-(3′-Chloro-2-fluoro-6-methoxy-biphenyl-3-ylmethyl)-pyridin-2-yl]-methylamine] | < 5 | < 5 |  | 
35 | COc1ccc(Cc2nnc(NC(N)=O)s2)c(F)c1-c1cccc(Cl)c1 [P-352, [5-(3′-Chloro-2-fluoro-6-methoxy-biphenyl-3-ylmethyl)-[1,3,4]thiadiazol-2-yl]-urea] | < 5 | < 5 |  | 
36 | CCOC(=O)Nc1ccc(Cc2ccc(OC)c(-c3cccc(Cl)c3)c2F)cn1 [P-357] | < 5 | < 5 |  | 
37 | COc1ccc(Cc2cnc(NC(=O)NCCCl)nc2)c(F)c1-c1cccc(C(C)=O)c1 [P-366, 1-[5-(3′-Acetyl-2-fluoro-6-methoxy-biphenyl-3-ylmethyl)-pyrimidin-2-yl]-3-(2-chloro-ethyl)-urea] |  |  | < 5 | < 5
38 | COc1ccc(CN2CCN(C(N)=O)CC2)c(F)c1-c1cccc(Cl)c1 [P-370] | < 5 | 5 to 20 |  | 
39 | COc1ccc(Cc2ccc(CNC(=O)N(C)C)nc2)c(F)c1-c1cccc(Cl)c1 [P-371, 3-[5-(3′-Chloro-2-fluoro-6-methoxy-biphenyl-3-ylmethyl)-pyridin-2-ylmethyl]-1,1-dimethyl-urea hydrochloride] | < 5 | < 5 |  | 
40 | COc1ccc(Cc2ccc(CNC(=O)N3CCN(C)CC3)nc2)c(F)c1-c1cccc(Cl)c1 [P-373, 4-Methyl-piperazine-1-carboxylic acid [5-(3′-chloro-2-fluoro-6-methoxy-biphenyl-3-ylmethyl)-pyridin-2-ylmethyl]-amide] | < 5 | 5 to 20 |  | 
41 | COc1ccc(Cc2ccc(N)nc2)nc1-c1cccc(Cl)c1 [P-379, 5-[6-(3-chloro-phenyl)-5-methoxy-pyridin-2-ylmethyl]-pyridin-2-ylamine] | < 5 | < 5 |  | 
42 | CCNC(=O)Nc1ccc(Cc2ccc(OC)c(-c3cccc(Cl)c3)n2)cn1 [P-386, 1-{5-[6-(3-chloro-phenyl)-5-methoxy-pyridin-2-ylmethyl]-pyridin-2-yl}-3-ethyl-urea hydrochloride] | < 5 | < 5 |  | 
43 | COc1ccc(Cc2ccc(N3CCNC3=O)nc2)c(F)c1-c1cccc(Cl)c1 [P-388, 1-[5-(3′-Chloro-2-fluoro-6-methoxy-biphenyl-3-ylmethyl)-pyridin-2-yl]-imidazolidin-2-one] | < 5 | < 5 |  | 
44 | COc1ccc(Cc2cnc(N3CC(O)C3)nc2)c(F)c1-c1cccc(Cl)c1 [P-393, 1-[5-(3′-Chloro-2-fluoro-6-methoxy-biphenyl-3-ylmethyl)-pyrimidin-2-yl]-azetidin-3-ol] | < 5 | < 5 |  | 
45 | COc1ccc(Cc2ccc(NC(N)=O)cc2)cc1-c1cccc(C#N)c1 [P-394, [4-(3′-Cyano-6-methoxy-biphenyl-3-ylmethyl)-phenyl]-urea] | < 5 | < 5 |  | 

Source: patent publication US8791267B2, “Biaryl PDE4 inhibitors for treating inflammatory, cardiovascular and CNS disorders” (Decode Genetics EHF, priority 2007, dated 2014)
